The values that follow come from US20250325553A1, “METHODS OF TREATING CANCER” (FOGHORN THERAPEUTICS INC., priority 2022, published 2025).

Read-outs that look alike come from different tables or passages of the source.

The test system of data set [1] is subjects with metastatic uveal melanoma. Nature of the data set: Phase 1 dose escalation clinical trial, dose limiting toxicity. It counts as in vivo. Conditions: one subject treated at the 7.5 mg dose; improved with a dose hold. The method, then:
(§1) A Phase 1 dose escalation clinical trial of Compound A is conducted. The trial is primarily intended to determine the maximum tolerated dose (MTD) and/or recommended phase 2 dose of the compound when administered orally to subjects with metastatic uveal melanoma.
(§2) In this ongoing study, Compound A has been administered at dose levels of 2.5 mg once a day (QD), 5 mg QD, 7.5 mg QD, and 10 mg QD to 17 subjects with metastatic uveal melanoma.

Data set [2] has as its system metastatic uveal melanoma. Nature of the data set: Phase 1 dose escalation clinical trial, tumor response. The class given is in vivo, human. Conditions: 2.5-10 mg QD oral, 17 subjects with metastatic uveal melanoma. The method, then:
as §1, §2

Data set [3] can be described thus: Population PK model of orally administered Compound A patient data. It counts as in vivo, human. The method, then: A population PK model based on orally administered Compound A dosing data in a total of 10 patients with metastatic uveal melanoma (UM) and advanced hematologic malignancies (e.g., acute myeloid leukemia (AML)) was performed.
Nonlinear mixed-effects models were fitted to concentration vs. time data of FHD-286. Various compartmental models with linear elimination (1-, 2- and 3-compartment), absorption models, structures of omega on clearances, volumes and absorption parameters (diagonal and block) were developed to assess the PK of Compound A.
Overall, a two-compartment model with linear elimination, a zero-order oral absorption, and a lag time of absorption adequately characterized the concentration-time profiles of Compound A.
Exploratory analysis of covariate effects was performed with appropriate plots presenting relationships between the ETAs (e.g., values reflecting the difference between and individual's parameter value and that of the population) of PK parameters to identify any remaining covariate trends. […] Therefore a “Multiple Dose Effect” on CL was included in the model to account for this change over time.
No other covariates were included as part of the model.

The nature of data set [4]: Phase 1 dose escalation clinical trial, preliminary pharmacokinetics. It counts as in vivo. The settings on record: preliminary PK analysis. The protocol:
as §1, §2

In the case of `COC[C@H](NC(=O)c1ccn(S(C)(=O)=O)c1)C(=O)Nc1nc(-c2cccc(N3C[C@@H](C)O[C@@H](C)C3)n2)cs1` [Compound A, N-(1-((4-(6-(2,6-dimethylmorpholino)pyridin-2-yl)thiazol-2-yl)amino)-3-methoxy-1-oxopropan-2-yl)-1-(methylsulfonyl)-1H-pyrrole-3-carboxamide], the dose limiting toxicity entry in data set [1] was “Grade 3 keratitis”. Further, the tumor response entry in data set [2] is “Stable disease and reductions in tumor burden”. In data set [3] (after multiple doses), the “clearance (CL) over time” value was “reduction in clearance”. The “Vc, Estimate” value in data set [3] (final PK model parameter) is recorded as 54.6 L. Also, in data set [3] (final PK model parameter, lag time of absorption), the “Tlag, Estimate” value is listed as 0.452 h. In addition, the “Dur, Estimate” value in data set [3] (final PK model parameter, zero-order oral absorption, two-compartment model, 10 patients (UM, AML)) was 1.77 h. Further, the clearance in data set [3] (human, in vivo, oral, final PK model parameter, linear elimination, read-out: CL, Estimate (converted)) was 67.8 mL/min; in data set [3] (human, in vivo, oral, final PK model parameter, read-out: CLp, Estimate (converted)), 510 mL/min. The Vd in data set [3] (human, in vivo, oral, final PK model parameter, read-out: Vd, Estimate) was 165 L. For the same molecule, the half-life entry in data set [4] (oral 2.5, 5, 7.5, 10 mg QD, subjects with metastatic uveal melanoma) is on record as “long half-life”. Besides, the “plasma concentrations of the compound” value in data set [4] (oral 2.5-10 mg QD dose levels) is “increase with increasing dose”.
